Paper PMC8000495, “A New Anti-Estrogen Discovery Platform Identifies FDA-Approved Imidazole Anti-Fungal Drugs as Bioactive Compounds against ERα Expressing Breast Cancer Cells” (International Journal of Molecular Sciences, 2021)

Legend:
[1] = biological target: T1, estrogen receptor α (ERα) (Homo sapiens, UniProt P03372)
T1 construct: gene ESR1
T1 sequence (P03372 1-595): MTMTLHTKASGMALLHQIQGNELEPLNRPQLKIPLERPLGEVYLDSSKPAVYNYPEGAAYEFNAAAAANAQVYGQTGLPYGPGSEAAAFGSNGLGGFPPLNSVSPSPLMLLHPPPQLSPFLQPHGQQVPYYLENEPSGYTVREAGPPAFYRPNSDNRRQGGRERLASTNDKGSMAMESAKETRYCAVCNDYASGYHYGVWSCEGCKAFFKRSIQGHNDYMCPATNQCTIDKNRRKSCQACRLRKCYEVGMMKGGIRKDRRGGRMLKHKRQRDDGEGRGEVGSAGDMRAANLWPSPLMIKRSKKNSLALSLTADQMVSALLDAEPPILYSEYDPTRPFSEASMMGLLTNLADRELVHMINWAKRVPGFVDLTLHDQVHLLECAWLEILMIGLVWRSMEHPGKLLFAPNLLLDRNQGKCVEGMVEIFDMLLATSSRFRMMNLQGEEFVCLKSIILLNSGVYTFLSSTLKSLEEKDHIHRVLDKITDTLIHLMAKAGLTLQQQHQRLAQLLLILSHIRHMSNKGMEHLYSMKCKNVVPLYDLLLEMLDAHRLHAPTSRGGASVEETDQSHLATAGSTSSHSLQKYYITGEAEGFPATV

[2] = biological target: T1, estrogen receptor α (ERα); test: fluorescence polarization competitive binding, dose-response

Structure (SMILES)	fluorescence polarization competitive binding screen, single dose 10^-4 M, Z* > [1]	IC50 [2] [µM]
Oc1ccc(/C=C/c2cc(O)cc(O)c2)cc1 [resveratrol]	we found well-known receptor ligands (e.g., estriol, resveratrol, genistein)	–
Clc1ccc(C(Cn2ccnc2)OCc2ccc(Sc3ccccc3)cc2)c(Cl)c1 (centres unmarked) [Fenti, fenticonazole]	–	~14
